According to US12129493B2, “Host cells and methods useful for producing unnatural terpenoids using a novel artificial metalloenzyme” (The Regents of the University of California, priority 2020, dated 2024):
pKd: −log10 of the molar value. Read-outs that look alike come from different tables or passages of the source.

Assays:
[1] = system: E. coli cells expressing the artificial biosynthetic pathway (pJBEI6410+pJHA170); experiment: Cell viability test with CFU (colony forming units) assay; format: cell-based; settings: high concentration, 4 h exposure
Description: 9. Cell viability test with CFU (colony forming units) assay. E. coli cells co-transformed with pJBEI6410 and pJHA170 were grown as described in 7, except for the following steps. […] A portion of cell culture (1.4 mL) was transferred into Falcon 14 mL round-bottom tube. […] For the control group, only sterile ddH2O (1%, v/v) was added. The cultures were further incubated at 30° C., 200 rpm for 4 h. Then the cultures were diluted 10^5 times. Aliquots of diluted cell suspension (50 μL) were plated onto LB agar plates. The plates were incubated at 30° C. for 24 h. The colonies grown on the plates were manually counted and the percentage of viable cells in each group was calculated by normalizing the number of colonies grown in the control group as 100%.

apo-myoglobin [2] = settings: from literature (ref. 9); cited from earlier work
[3] = target: T1, Sulfolobus CYP119 (cytochrome P450 119, parent sequence SEQ ID NO: 1), apo form, CYP119-141 mutant (C317G, T213G, V254L, L155W) (Sulfolobus acidocaldarius, UniProt Q55080, C317G/L155W/T213G/V254L); experiment: Binding affinity of apo-CYP119 towards Ir(Me)MPIX/hemin (intrinsic fluorescence quenching, Benesi-Hildebrand); parameters: species or system Sulfolobus solfataricus; settings: excitation 294 nm, 10 mM TRIS buffer pH 8.0, Benesi-Hildebrand analysis
T1 construct: made in house
Description: Intrinsic fluorescence quenching;^8 Modified from a reported procedure, aliquots (10 μL) of metalloporphyrin stock solutions (in DMSO) were added to a solution containing 0.15 mg/L apo-CYP119 (CYP119-141 mutant, 800 μL, 10 mM TRIS buffer, pH 8.0). This addition caused the concentration of the protein to decrease from its initial value to a final concentration of 0.148 mg/L in the process. After each addition, the emission spectrum of CYP119 was recorded upon excitation at 294 nm. In quenching experiments, the concentration of the chromophore (CYP119 or porphyrin) was kept sufficiently low (<0.15) to ensure uniform light absorption throughout the sample and reduced inner filter effects. The fluorescence emission intensity was calculated as the integral of the emission spectrum in the recorded wavelength range (305-450 nm).

apo-ascorbate peroxidase [4] = settings: from literature (ref. 9); cited from earlier work
apo-ascorbate peroxidase [5] = settings: literature; cited from earlier work
apo-myoglobin [6] = settings: literature; cited from earlier work

T1 sequence (Q55080 whole entry L155W/T213G/V254L/C317G): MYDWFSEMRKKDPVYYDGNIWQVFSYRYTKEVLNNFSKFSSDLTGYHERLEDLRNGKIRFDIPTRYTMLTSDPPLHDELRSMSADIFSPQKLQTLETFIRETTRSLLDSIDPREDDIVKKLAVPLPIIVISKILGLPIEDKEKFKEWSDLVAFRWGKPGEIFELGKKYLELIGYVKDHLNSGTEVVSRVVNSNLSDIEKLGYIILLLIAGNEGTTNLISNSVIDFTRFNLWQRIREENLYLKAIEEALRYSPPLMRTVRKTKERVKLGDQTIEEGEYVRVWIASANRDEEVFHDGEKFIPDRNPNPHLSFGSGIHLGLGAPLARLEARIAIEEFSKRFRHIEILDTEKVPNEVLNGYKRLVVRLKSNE

## CCOC(=O)C=[N+]=[N-] [EDA, ethyl diazoacetate]
[1]
  toxicity to E. coli cells (viable cells): toxic

## C=CC1=C(C)c2cc3[nH]c(cc4nc(cc5[nH]c(cc1n2)c(C)c5CCC(=O)O)C(CCC(=O)O)=C4C)c(C)c3C=C.[Fe+3] [Fe(Cl)PPIX, reference compound]
apo-myoglobin [2]
  pKd: 6.22
[3]
  Kb: 6.7(0.7) × 10^5 M^−1
  pKd: 5.82
apo-ascorbate peroxidase [4]
  pKd: 6.72

## C=CC1=C(C)c2cc3[n-]c(cc4[n-]c(cc5nc(cc1n2)C(C)=C5C=C)c(C)c4CCC(=O)O)c(CCC(=O)O)c3C.[Cl-].[Fe+3] [Fe(Cl)PPIX]
apo-ascorbate peroxidase [5]
  pKd: 6.72
apo-myoglobin [6]
  pKd: 6.22
